# According to patent publication US4786635A, “Novel benzothiazine derivatives” (Santen Pharmaceutical Co., Ltd., priority 1985, dated 1988):
# Where a name gives a salt, the structure may show the parent alone.
# Test system: Isolated guinea-pig taenia coli
# Experiment: calcium-antagonistic activity: inhibition of CaCl2-induced contraction of isolated guinea-pig taenia coli
# Assay type: cell-based
# Details: Cavia porcellus, Ca^++ -free Krebs solution, 32° C., test compound 5 minutes before CaCl2 (3×10^-4 M), isotonic recording, read-out: IC50 (concentration of the test compound which elicited 50% inhibition of Ca^++ -induced contraction)
# Method: (Method for mesurement of calcium-antagonistic activity) Isolated guinea-pig taenia coli was suspended in a 20 ml organ bath filled with Krebs solution at32° C. and bubbled with 5% carbon dioxide in oxygen. After equilibration, the muscle was suspended in Ca^++ -free Krebs solution. The muscle was then exposed to the test compound for 5 minutes before the addition of CaCl2, and the contraction induced by CaCl2 (3×10^-4 M) was recorded isotonically. The calcium-antagonistic activity was represented by the concentration of the test compound which elicited 50% inhibition (IC50) of Ca^++ -induced contraction.
row,SMILES,IC50
1,"COc1ccc(OCCCN(C)CCOc2ccc3c(c2)OCO3)c(C2Sc3ccccc3N(C)C2=O)c1 (stereo not shown) [Compound B, 3,4-dihydro-2-[5-methoxy-2-[3-[N-methyl-N-[2-[(3,4-methylenedioxy)phenoxy]ethyl]amino]propoxy]phenyl]-4-methyl-3-oxo-2H-1,4-benzothiazine fumarate]",240 nM
2,"COc1ccc(OCCCCN(C)CCOc2ccc3c(c2)OCO3)c(C2Sc3ccccc3N(C)C2=O)c1 (stereo not shown) [Compound A, 3,4-dihydro-2-[5-methoxy-2-[4-[N-methyl-N-[2-[(3,4-methylenedioxy)phenoxy]ethyl]amino]butoxy]phenyl]-4-methyl-3-oxo-2H-1,4-benzothiazine oxalate]",320 nM
3,"COc1ccc(OCCCCN(C)CCOc2ccc(OC)c(OC)c2)c(C2Sc3ccccc3N(C)C2=O)c1 (stereo not shown) [Compound C, 3,4-dihydro-2-[5-methoxy-2-[4-[N-methyl-N-[2-[(3,4-dimethoxy)phenoxy]ethyl]amino]butoxy]phenyl]-4-methyl-3-oxo-2H-1,4-benzothiazine oxalate]",290 nM
4,"COc1ccc(OCCCCN(C)CCc2ccc(OC)c(OC)c2)c(C2Sc3ccccc3N(C)C2=O)c1 (stereo not shown) [Reference Compound, 3,4-dihydro-2-[5-methoxy-2-[4-[N-methyl-(3,4-dimethoxy)phenetylamino]butoxy]phenyl]-4-methyl-3-oxo-2H-1,4-benzothiazine oxalate, reference compound]",3200 nM
